From ChEMBL document CHEMBL1134707, “Orally active docetaxel analogue: synthesis of 10-deoxy-10-C-morpholinoethyl docetaxel analogues” (2001)
In brackets after ≈: the same amount, converted by molar mass.

Legend:
[1] = tested on: PC-6; experiment: Cytotoxic activity against PC-6 human small cell lung cancer; type: functional
[2] = tested on: PC-6; experiment: Cytotoxic activity against PC-6/VCR29-9 vincristine resistant cell line expressing P-gp; type: functional; details: Homo sapiens
[3] = tested on: PC-12; experiment: Cytotoxic activity against PC-12 human non-small cell lung cancer cell line
[4] = tested on: PC-12; experiment: Cytotoxic activity against PC-12 human non-small cell lung cancer cell line; type: functional; details: Rattus norvegicus
[5] = tested on: Mus musculus; experiment: Antitumor activity against B16 melanoma in mice at dose of 33.3 mg/kg by po administration and body weight loss is reported; type: functional
[6] = tested on: Mus musculus; experiment: Antitumor activity against B16 melanoma in mice at dose of 22.2 mg/kg by po administration and IR value is reported; type: functional
[7] = tested on: Mus musculus; experiment: Antitumor activity against B16 melanoma in mice at dose of 50 mg/kg by po administration and body weight loss is reported; type: functional
[8] = tested on: Mus musculus; experiment: Antitumor activity against B16 melanoma in mice at dose of 33.3 mg/kg by iv administration and body weight loss is reported; type: functional
[9] = tested on: Mus musculus; experiment: Antitumor activity against B16 melanoma at dose of 100 mg/kg by iv administration in mice and mortality rate is reported; type: functional
[10] = tested on: Mus musculus; experiment: Antitumor activity against B16 melanoma in mice at dose of 75 mg/kg by iv administration and body weight loss is reported; type: functional
[11] = tested on: Mus musculus; experiment: Antitumor activity against B16 melanoma in mice at dose of 33.3 mg/kg by po administration and IR value is reported; type: functional
[12] = tested on: Mus musculus; experiment: Antitumor activity against B16 melanoma at dose of 75 mg/kg by po administration in mice and mortality rate is reported; type: functional
[13] = tested on: Mus musculus; experiment: Antitumor activity against B16 melanoma at dose of 75 mg/kg by iv administration in mice and mortality rate is reported; type: functional
[14] = tested on: Mus musculus; experiment: Antitumor activity against B16 melanoma in mice at dose of 22.2 mg/kg by po administration and body weight loss is reported; type: functional
[15] = tested on: Mus musculus; experiment: Antitumor activity against B16 melanoma at dose of 33.3 mg/kg by po administration in mice and mortality rate is reported; type: functional
[16] = tested on: Mus musculus; experiment: Antitumor activity against B16 melanoma in mice at dose of 75 mg/kg by iv administration and IR value is reported; type: functional
[17] = tested on: Mus musculus; experiment: Antitumor activity against B16 melanoma in mice at dose of 112.5 mg/kg by po administration and IR value is reported; type: functional
[18] = tested on: Mus musculus; experiment: Antitumor activity against B16 melanoma in mice at dose of 22.2 mg/kg by iv administration and IR value is reported; type: functional
[19] = tested on: Mus musculus; experiment: Antitumor activity against B16 melanoma at dose of 112.5 mg/kg by po administration in mice and mortality rate is reported; type: functional
[20] = tested on: Mus musculus; experiment: Antitumor activity against B16 melanoma in mice at dose of 75 mg/kg by po administration and IR value is reported; type: functional
[21] = tested on: Mus musculus; experiment: Antitumor activity against B16 melanoma at dose of 50 mg/kg by po administration in mice and mortality rate is reported; type: functional
[22] = tested on: Mus musculus; experiment: Antitumor activity against B16 melanoma in mice at dose of 50 mg/kg by iv administration and body weight loss is reported; type: functional
[23] = tested on: Mus musculus; experiment: Antitumor activity against B16 melanoma in mice at dose of 22.2 mg/kg by iv administration and body weight loss is reported; type: functional
[24] = tested on: Mus musculus; experiment: Antitumor activity against B16 melanoma at dose of 33.3 mg/kg by iv administration in mice and mortality rate is reported; type: functional
[25] = tested on: Mus musculus; experiment: Antitumor activity against B16 melanoma in mice at dose of 50 mg/kg by iv administration and IR value is reported; type: functional
[26] = tested on: Mus musculus; experiment: Antitumor activity against B16 melanoma at dose of 22.2 mg/kg by po administration in mice and mortality rate is reported; type: functional
[27] = tested on: Mus musculus; experiment: Antitumor activity against B16 melanoma in mice at dose of 112.5 mg/kg by po administration and body weight loss is reported; type: functional
[28] = tested on: Mus musculus; experiment: Antitumor activity against B16 melanoma in mice at dose of 33.3 mg/kg by iv administration and IR value is reported; type: functional
[29] = tested on: Mus musculus; experiment: Antitumor activity against B16 melanoma at dose of 50 mg/kg by iv administration in mice and mortality rate is reported; type: functional
[30] = tested on: Mus musculus; experiment: Antitumor activity against B16 melanoma in mice at dose of 75 mg/kg by po administration and body weight loss is reported; type: functional
[31] = tested on: Mus musculus; experiment: Antitumor activity against B16 melanoma in mice at dose of 50 mg/kg by po administration and IR value is reported; type: functional
[32] = tested on: Mus musculus; experiment: Antitumor activity against B16 melanoma at dose of 600 mg/kg by po administration in mice and mortality rate is reported; type: functional
[33] = tested on: Mus musculus; experiment: Antitumor activity against B16 melanoma in mice at dose of 600 mg/kg by po administration and IR value is reported; type: functional
[34] = tested on: Mus musculus; experiment: Antitumor activity against B16 melanoma in mice at dose of 100 mg/kg by iv administration and body weight loss is reported; type: functional
[35] = tested on: Mus musculus; experiment: Antitumor activity against B16 melanoma in mice at dose of 600 mg/kg by po administration and body weight loss is reported; type: functional
[36] = tested on: Mus musculus; experiment: Antitumor activity against B16 melanoma in mice at dose of 100 mg/kg by iv administration and IR value is reported; type: functional

Question: Which results are given for `CC(=O)O[C@@]12CO[C@@H]1C[C@@H](F)[C@@]1(C)C(=O)[C@H](CCN3CCOCC3)C3=C(C)[C@@H](OC(=O)[C@H](O)[C@@H](NC(=O)OC(C)(C)C)c4ccccc4)C[C@@](O)([C@@H](OC(=O)c4ccccc4)C12)C3(C)C` (some centres not stated)?
Answer: GI50 [1]: 0.379 ng/mL (≈ 0.418 nM); GI50 [2]: 16.2 ng/mL (≈ 17.9 nM); GI50 [3]: 2.55 ng/mL (≈ 2.81 nM)

Question: `CC(=O)O[C@@]12CO[C@@H]1C[C@H](O)[C@@]1(C)C(=O)[C@H](CCN3CCOCC3)C3=C(C)[C@@H](OC(=O)[C@H](O)[C@@H](NC(=O)OC(C)(C)C)c4ccccc4)C[C@@](O)([C@@H](OC(=O)c4ccccc4)[C@H]21)C3(C)C` was tested. Which GI50 [1] did it give?
Answer: 1.72 ng/mL (≈ 1.9 nM)

Question: What about the GI50 [2] of the same molecule?
Answer: 76.3 ng/mL (≈ 84.3 nM)

Question: And the GI50 [3]?
Answer: 21.5 ng/mL (≈ 23.8 nM)

Question: How did the GI50 [1] turn out when `CC(=O)O[C@@]12CO[C@@H]1C[C@H](OCF)C1(C)C(=O)[C@H](CCN3CCOCC3)C3=C(C)[C@@H](OC(=O)[C@H](O)[C@@H](NC(=O)OC(C)(C)C)c4ccccc4)C[C@@](O)([C@@H](OC(=O)c4ccccc4)C12)C3(C)C` (some centres not stated) was run?
Answer: 0.246 ng/mL (≈ 0.263 nM)

Question: And the GI50 [2]?
Answer: 40.4 ng/mL (≈ 43.1 nM)

Question: And the GI50 [4]?
Answer: 1.5 ng/mL (≈ 1.6 nM)

Question: `CC(=O)O[C@@]12CO[C@@H]1C=C[C@@]1(C)C(=O)[C@H](CCN3CCOCC3)C3=C(C)[C@@H](OC(=O)[C@H](O)[C@@H](NC(=O)OC(C)(C)C)c4ccccc4)C[C@@](O)([C@@H](OC(=O)c4ccccc4)C12)C3(C)C` (some centres not stated) was tested. Which GI50 [1] did it give?
Answer: 0.5 ng/mL (≈ 0.564 nM)

Question: What about the GI50 [2] of the same molecule?
Answer: 18 ng/mL (≈ 20.3 nM)

Question: And the GI50 [3]?
Answer: 0.824 ng/mL (≈ 0.929 nM)

Question: With `CC(=O)O[C@@]12CO[C@@H]1CC[C@@]1(C)C(=O)[C@H](CCN3CCOCC3)C3=C(C)[C@@H](OC(=O)[C@H](O)[C@@H](NC(=O)OC(C)(C)C)c4ccccc4)C[C@@](O)([C@@H](OC(=O)c4ccccc4)C12)C3(C)C` (some centres not stated) as the molecule, how does the GI50 [1] read?
Answer: 0.761 ng/mL (≈ 0.856 nM)

Question: And the GI50 [2]?
Answer: 20.4 ng/mL (≈ 22.9 nM)

Question: What about the GI50 [3] of the same molecule?
Answer: 1.47 ng/mL (≈ 1.65 nM)

Question: With `CO[C@H]1C[C@H]2OC[C@@]2(OC(C)=O)[C@H]2[C@H](OC(=O)c3ccccc3)[C@]3(O)C[C@H](OC(=O)[C@H](O)[C@@H](NC(=O)OC(C)(C)C)c4ccccc4)C(C)=C([C@@H](CCN4CCOCC4)C(=O)[C@]12C)C3(C)C` as the molecule, how does the BWL [5] read?
Answer: 0.9%

Question: What about the IR [6] of the same molecule?
Answer: 81.7%

Question: What about the BWL [7] of the same molecule?
Answer: <1.7%

Question: And the BWL [8]?
Answer: 9.4%

Question: What about the Mortality [9] of the same molecule?
Answer: 0

Question: What about the BWL [10] of the same molecule?
Answer: 19.2%

Question: And the IR [11]?
Answer: 82.8%

Question: What about the Mortality [12] of the same molecule?
Answer: 0

Question: What about the GI50 [1] of the same molecule?
Answer: 0.266 ng/mL (≈ 0.289 nM)

Question: And the Mortality [13]?
Answer: 5

Question: And the BWL [14]?
Answer: <0%

Question: What about the Mortality [15] of the same molecule?
Answer: 0

Question: And the IR [16]?
Answer: 99.4%

Question: What about the IR [17] of the same molecule?
Answer: 99%

Question: What about the IR [18] of the same molecule?
Answer: 93.7%

Question: What about the Mortality [19] of the same molecule?
Answer: 4

Question: What about the IR [20] of the same molecule?
Answer: 98.3%

Question: And the GI50 [2]?
Answer: 9.01 ng/mL (≈ 9.8 nM)

Question: What about the Mortality [21] of the same molecule?
Answer: 0

Question: And the BWL [22]?
Answer: 18%

Question: And the BWL [23]?
Answer: 5.7%

Question: What about the GI50 [3] of the same molecule?
Answer: 0.756 ng/mL (≈ 0.823 nM)

Question: What about the Mortality [24] of the same molecule?
Answer: 0

Question: What about the IR [25] of the same molecule?
Answer: 98.6%

Question: And the Mortality [26]?
Answer: 0

Question: What about the BWL [27] of the same molecule?
Answer: <20%

Question: What about the IR [28] of the same molecule?
Answer: 94.4%

Question: And the Mortality [29]?
Answer: 0

Question: What about the BWL [30] of the same molecule?
Answer: 5%

Question: What about the IR [31] of the same molecule?
Answer: 96.2%

Question: `CC(=O)O[C@@]12CO[C@@H]1CC1C[C@@]13C(=O)[C@H](CCN1CCOCC1)C1=C(C)[C@@H](OC(=O)[C@H](O)[C@@H](NC(=O)OC(C)(C)C)c4ccccc4)C[C@@](O)([C@@H](OC(=O)c4ccccc4)C32)C1(C)C` (some centres not stated) was tested. Which GI50 [1] did it give?
Answer: 0.873 ng/mL (≈ 0.984 nM)

Question: What about the GI50 [2] of the same molecule?
Answer: 38.6 ng/mL (≈ 43.5 nM)

Question: And the GI50 [3]?
Answer: 3.56 ng/mL (≈ 4.01 nM)

Question: Which results are given for `CC(=O)O[C@@]12CO[C@@H]1C[C@H](O)[C@@]1(C)C(=O)[C@H](O)C3=C(C)[C@@H](OC(=O)[C@H](O)[C@@H](NC(=O)OC(C)(C)C)c4ccccc4)C[C@@](O)([C@@H](OC(=O)c4ccccc4)[C@H]21)C3(C)C.O.O.O` [DOCETAXEL]?
Answer: Mortality [32]: 0; Mortality [9]: 0; IR [33]: 6.2%; GI50 [1]: 0.408 ng/mL; BWL [34]: <0%; GI50 [2]: 39.6 ng/mL; GI50 [3]: 11.7 ng/mL; BWL [35]: <0%; IR [36]: 95.1%
